Where “and” joins values, the source holds several entries; their conditions need not be identical. Equal entries are not always repeated. Where two headings read alike, the source gives them in different places.
Biological target: His6‐FraB (Salmonella FraB deglycase) (Salmonella enterica subsp. enterica serovar Typhimurium, UniProt Q8ZLD0)
Experiment: FraB-G6PD coupled assay, IC50 determination
Assay type: biochemical
Protocol: The substrate for FraB, 6‐P‐F‐Asp, was synthesized as previously described. FraB activity was monitored as described previously, with the following changes. The final reaction (30 μL) consisted of 25 mM HEPES pH 8 (at 20 °C), 5 mM MgCl2, 0.1 mM ethylene glycol tetraacetic acid (EGTA), 0.5 mM NAD^+, 1 mU G6PD from Leuconostoc mesenteroides (#LS003981; Worthington Biochemicals, Lakewood, NJ, USA), 100 nM His6‐FraB, and 0–3 mM 6‐P‐F‐Asp. The reaction mixture without substrate (29 μL) was added to one well of a 384‐well polystyrene white μClear® microplate (#781095; Greiner Bio‐One, Monroe, NC, USA) and incubated at 37 °C for 2 min, prior to the addition of 1 μL substrate to initiate the reaction. NADH generation was monitored using either absorbance (340 nm) or fluorescence (350 nm excitation, 450 nm emission) and with either an INFINITE M1000 PRO (Tecan, Mannedorf, Switzerland) or Synergy H1 (Biotek, Winooski, VT, USA) plate reader. Absorbance/fluorescence was plotted against time and slopes were obtained by linear regression analyses. These slopes were converted into initial velocities by dividing them by either the absorbance extinction coefficient (ε340 = 6,220 M ^−1·cm^−1) or the molar fluorescence determined based on standard curves obtained in different plate readers (23,646 RFUs·μM ^−1, Tecan; 285,108 RFUs·μM ^−1, Biotek; Fig. S2). These initial velocities (v o) in turn were plotted against [6‐P‐F‐Asp] to obtain Michaelis–Menten curves that were fit to the formula v o = (V max × [S])/(K m + [S]) by Kaleidagraph (Version 4.5.3; Synergy Software, Reading, PA, USA). The activity of recombinant FraB (Fig. S3) was similar to that as reported previously.
For determining the IC50 value of each compound, 26 μL of master mix was added to two rows (48 wells) of a 384‐well Greiner plate followed by 3 μL of inhibitor to four wells per concentration (12 concentrations total) using a single‐channel pipette. After mixing with a 12‐channel pipette, the plate was incubated at 20 °C for 20 min. To initiate the reaction, a 12‐channel pipette was used to add and mix 1 μL of 7.5 mM 6‐P‐F‐Asp to all 48 wells. The final reaction (30 μL) consisted of 25 mM HEPES pH 8.0 at 20 °C, 5 mM MgCl2, 0.1 mM EGTA, 0.5 mM NAD^+, 1 mU G6PD, 100 nM His6‐FraB, 0.25 mM 6‐P‐F‐Asp, and varying concentrations of inhibitor (10% v/v DMSO). NADH fluorescence was monitored every 10 s for 10 min total on a SPARK® multi‐mode multiplate reader (Tecan), as described above, and plotted against time. Slopes of the linear range of each curve were converted to initial velocities, as described above, that were then plotted against (inhibitor). Kaleidagraph was used to fit a sigmoidal curve to each plot using the following formula in order to determine the [IC50]: % inhibition = 100/1 + (IC50/[I]), where I is [inhibitor] [48].

[1] = 0.25 mM 6‐P‐F‐Asp, mean and standard error from two measurements, read-out: IC50
[2] = Trial 1, 0.25 mM 6-P-F-Asp, unit in Fig. S10, read-out: IC50 (curve fit of IC50 plots, Fig. S10)
[3] = Trial 2, 0.25 mM 6-P-F-Asp, unit in Fig. S10, read-out: IC50 (curve fit of IC50 plots, Fig. S10)

Chain of His6‐FraB (Salmonella FraB deglycase) (Q8ZLD0 entry or part of it): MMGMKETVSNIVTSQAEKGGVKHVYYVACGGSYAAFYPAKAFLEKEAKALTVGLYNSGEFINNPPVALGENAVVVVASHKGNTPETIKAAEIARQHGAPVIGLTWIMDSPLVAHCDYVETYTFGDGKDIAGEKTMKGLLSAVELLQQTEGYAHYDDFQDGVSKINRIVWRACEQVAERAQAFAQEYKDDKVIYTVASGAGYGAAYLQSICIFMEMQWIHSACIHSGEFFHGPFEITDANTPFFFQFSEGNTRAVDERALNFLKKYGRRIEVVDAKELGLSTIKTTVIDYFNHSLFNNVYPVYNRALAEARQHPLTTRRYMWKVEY

| Structure (SMILES) | IC50 [1] [µM] | IC50 [2] | IC50 [3] | IC50 (IC50 (curve fit of IC50 plots, Fig. S10), Trial 1, 0.25 mM 6-P-F-Asp, unit in Fig. S10) [µM] | IC50 (IC50 (curve fit of IC50 plots, Fig. S10), Trial 2, 0.25 mM 6-P-F-Asp, unit in Fig. S10) [µM] | IC50 (IC50, 0.25 mM 6‐P‐F‐Asp, mean and standard error from two measurements) [µM] |
| --- | --- | --- | --- | --- | --- | --- |
| O=c1[nH][nH]c(=S)n1Cc1ccccc1 [1533:K12, 4‐benzyl‐5‐sulfanylidene‐1,2,4‐triazolidin‐3‐one] | 27.6 ± 3.9 | 31.5 µM | 23.7 µM | – | – | – |
| Fc1ccc(-c2nn3c(-c4ccccn4)nnc3s2)cc1 [3469:N17, 6‐(4‐fluorophenyl)‐3‐pyridin‐2‐yl‐[1,2,4]triazolo[3,4‐b][1,3,4]thiadiazole] | – | – | – | 113 | 86.7 | 100 ± 13 |
| CC(C)Cc1cc(-c2nn3c(-c4ccccc4Cl)nnc3s2)n[nH]1 [3470:A09, 3‐(2‐chlorophenyl)‐6‐[5‐(2‐methylpropyl)‐1H‐pyrazol‐3‐yl]‐[1,2,4]triazolo[3,4‐b][1,3,4]thiadiazole] | 15.4 ± 0.4 | 15.8 µM | 15 µM | – | – | – |
| c1ccc(-c2nnc3sc(C4COc5ccccc5O4)nn23)nc1 (stereo not drawn) [3469:F02, 6‐(2,3‐dihydro‐1,4‐benzodioxin‐3‐yl)‐3‐pyridin‐2‐yl‐[1,2,4]triazolo[3,4‐b][1,3,4]thiadiazole] | 42 ± 2.6 | 44.5 µM and 44.4 µM | 39.3 µM | – | – | – |
| O=c1sn(-c2ccccc2C(F)(F)F)c(=O)n1CC1CC1 [1524:G12, 4‐(cyclopropylmethyl)‐2‐[2‐(trifluoromethyl)phenyl]‐1,2,4‐thiadiazolidine‐3,5‐dione] | 2.8 ± 0.4 | 3.24 µM and 3.2 µM | 2.39 µM and 2.4 µM | – | – | – |
| Cc1cccc(Cl)c1-n1sc(=O)n(CC2CC2)c1=O [1524:E12, 2‐(2‐chloro‐6‐methylphenyl)‐4‐(cyclopropylmethyl)‐1,2,4‐thiadiazolidine‐3,5‐dione] | 4.3 | 4.28 µM and 4.3 µM | 4.29 µM and 4.3 µM | – | – | – |
